Activity calls are given as the source filed them. The rule behind the calls is not given here.
How the values were obtained:
cells = conditions: Homo sapiens, A2058, 1 h
Description: Inhibition of Class 1 PI3K/mTOR in human A2058 cells assessed as reduction in S6 phosphorylation at Ser235/236 residue incubated for 1 hr by InCell Western assay

[1] = molecular target: Serine/threonine-protein kinase mTOR (Homo sapiens, UniProt P42345); test: Displacement of Alexafluor labelled kinase tracer314 from recombinant human C-terminal GST-tagged mTOR (1360 to 2549 amino acids) expressed in insect cells incubated for 1 hr by FRET-based LanthaScreen Eu kinase binding assay
[2] = molecular target: T1, Phosphatidylinositol 4,5-bisphosphate 3-kinase catalytic subunit alpha isoform (Homo sapiens, UniProt P42336); test: Displacement of Alexafluor labelled kinase tracer314 from recombinant N-terminal His6-tagged PI3K p110alpha (unknown origin) incubated for 1 hr by FRET-based LanthaScreen Eu kinase binding assay
[3] = Inhibition of Class 1 PI3K/mTOR in human A2058 cells assessed as reduction in Akt phosphorylation at Ser473 residue incubated for 1 hr by InCell Western assay; format: cell-based; conditions: A2058, 1 h
A2058 [4] = test: Antiproliferative activity against human A2058 cells at 5 to 0.02 uM after 72 hrs by […] staining based assay; format: functional, cell-based
SK-OV-3 = test: Antiproliferative activity against human SKOV3 cells at 5 to 0.02 uM after 72 hrs by […] staining based assay; format: functional, cell-based
[5] = Clearance in C57BL/6J mouse plasma at 50 mg/kg, po administered as single dose by LC-MS analysis; format: ADME, organism-based
[6] = AUClast at steady state in male Beagle dog at 1 mg/kg/day, po after 4 weeks; format: ADME, organism-based, Canis lupus familiaris; conditions: in vivo
[7] = Terminal half-life in C57BL/6J mouse thigh muscle at 50 mg/kg, po administered as single dose by LC-MS analysis; format: ADME, organism-based; conditions: read-out: beta t1/2 (converted)
Mus musculus [8] = test: In vivo inhibition of Class 1 PI3K/mTOR in C57BL/6J mouse assessed as increase in plasma glucose level at 50 mg/kg, po administered as single dose after 2 hr by colorimetry based immunoassay; format: functional, organism-based
[9] = Half-life in rat hepatocytes; format: ADME, cell-based, Hepatocyte
[10] = Metabolic stability in human liver microsomes assessed as compound remaining after 30 mins; format: ADME, Microsome; conditions: read-out: Stability
[11] = Metabolic stability in rat liver microsomes assessed as compound remaining after 30 mins; format: ADME, Microsome; conditions: read-out: Stability
[12] = Terminal half-life in C57BL/6J mouse brain at 50 mg/kg, po administered as single dose by LC-MS analysis; format: ADME, organism-based; conditions: read-out: beta t1/2 (converted)
[13] = molecular target: T1, Phosphatidylinositol 4,5-bisphosphate 3-kinase catalytic subunit alpha isoform; test: Binding affinity to wild-type human partial length PIK3CA (R108 to N1068 residues) expressed in mammalian expression system by quantitative PCR based KINOMEscan assay
[14] = AUC (0 to 8 hrs) in C57BL/6J mouse brain at 50 mg/kg, po administered as single dose by LC-MS analysis; format: ADME, organism-based; parameters: dose 50 mg/kg, time < 8 hr, route oral
Mus musculus [15] = test: In vivo inhibition of Class 1 PI3K/mTOR in C57BL/6J mouse assessed as increase in plasma glucose level at 50 mg/kg, po administered as single dose after 10 mins to 1 hr by colorimetric assay; format: functional, organism-based
[16] = AUC (0 to 8 hrs) at steady state in female Wistar rat at 0.5 mg/kg, po after 4 weeks; format: ADME, organism-based; parameters: time < 8 hr, dose 0.5 mg/kg, route oral; conditions: in vivo
[17] = Toxicity in po dosed male Beagle dog; format: organism-based, Canis lupus familiaris; conditions: in vivo
[18] = Fraction unbound in rat brain; format: ADME, tissue-based
[19] = Intrinsic clearance in mouse hepatocytes assessed per 10^6 cells; format: ADME, cell-based, Hepatocyte; conditions: read-out: CLH
A2058 [20] = test: Inhibition of Class 1 PI3K/mTOR in human A2058 cells assessed as reduction in p70S6K phosphorylation incubated for 1 hr by InCell Western assay; format: cell-based
[21] = Terminal half-life in C57BL/6J mouse plasma at 50 mg/kg, po administered as single dose by LC-MS analysis; format: ADME, organism-based; conditions: read-out: beta t1/2 (converted)
[22] = Half-life in mouse hepatocytes; format: ADME, cell-based, Hepatocyte
[23] = Toxicity in BALB/c nude mouse assessed as effect on body weight at 25 mg/kg, po administered once daily starting from 17 days post inoculation and measured after 20 to 40 days post inoculation; format: organism-based; conditions: in vivo
Homo sapiens = species: Homo sapiens; test: Inhibition of Class 1 PI3K/mTOR in human SKOV3 cells assessed as reduction in Akt phosphorylation at Ser473 residue incubated for 1 hr by InCell Western assay; format: cell-based
[24] = molecular target: Phosphatidylinositol 4,5-bisphosphate 3-kinase catalytic subunit gamma isoform (Homo sapiens, UniProt P48736); test: Binding affinity to wild-type human partial length PIK3CG (S144 to A1102 residues) expressed in mammalian expression system by quantitative PCR based KINOMEscan assay
[25] = Tmax in C57BL/6J mouse thigh muscle at 50 mg/kg, po administered as single dose by LC-MS analysis; format: ADME, organism-based
OVCAR-3 = test: Antitumor activity against human OVCAR3 cells xenografted in BALB/c nude mouse assessed as reduction in tumor growth at 25 mg/kg, po administered once daily starting from 17 days post inoculation and measured thrice per week; format: functional, organism-based
[26] = AUC (0 to 8 hrs) in C57BL/6J mouse plasma at 50 mg/kg, po administered as single dose by LC-MS analysis; format: ADME, organism-based; parameters: dose 50 mg/kg, time < 8 hr, route oral
[27] = Intrinsic clearance in dog hepatocytes assessed per 10^6 cells; format: ADME, cell-based, Canis lupus familiaris, Hepatocyte; conditions: read-out: CLH
A2058 [28] = test: Inhibition of Class 1 PI3K/mTOR in human A2058 cells assessed as reduction in Akt phosphorylation incubated for 1 hr by InCell Western assay; format: cell-based
[29] = Toxicity in po dosed female Beagle dog; format: organism-based, Canis lupus familiaris; conditions: in vivo
[30] = Cmax in C57BL/6J mouse plasma at 50 mg/kg, po administered as single dose after 30 mins by LC-MS analysis; format: ADME, organism-based; parameters: dose 50 mg/kg, route oral
[31] = Half-life clearance in human hepatocytes; format: ADME, cell-based, Hepatocyte
[32] = Cmax in C57BL/6J mouse brain at 50 mg/kg, po administered as single dose after 30 mins by LC-MS analysis; format: ADME, organism-based; parameters: dose 50 mg/kg, route oral
[33] = Metabolic stability in mouse liver microsomes assessed as compound remaining after 30 mins; format: ADME, Microsome; conditions: read-out: Stability
[34] = AUC (0 to 8 hrs) at steady state in male Wistar rat at 1 mg/kg/day, po after 4 weeks; format: ADME, organism-based; parameters: dose 1 mg/kg/day, time < 8 hr, route oral; conditions: in vivo
[35] = molecular target: PI3-kinase p110-alpha/p85-alpha (Homo sapiens) (UniProt P27986+P42336); test: Inhibition of Wortmannin covalent binding to N-terminal His-tagged recombinant human PI3K p110alpha/p85alpha Lys802 expressed in baculovirus expression system preincubated for 1 hr followed by Wortmannin addition and measured after 20 mins by SDS-PAGE based immunoblot assay
[36] = AUC (0 to 8 hrs) in C57BL/6J mouse thigh muscle at 50 mg/kg, po administered as single dose by LC-MS analysis; format: ADME, organism-based; parameters: dose 50 mg/kg, time < 8 hr, route oral
[37] = Intrinsic clearance in rat hepatocytes assessed per 10^6 cells; format: ADME, cell-based, Hepatocyte; conditions: read-out: CLH
A2058 [38] = test: Inhibition of Class 1 PI3K/mTOR in human A2058 cells assessed as reduction in GSK3 phosphorylation incubated for 1 hr by InCell Western assay; format: cell-based
[39] = Metabolic stability in dog liver microsomes assessed as compound remaining after 30 mins; format: ADME, Canis lupus familiaris, Microsome; conditions: read-out: Stability
[40] = Tmax in C57BL/6J mouse plasma at 50 mg/kg, po administered as single dose by LC-MS analysis; format: ADME, organism-based
[41] = Half-life in dog hepatocytes; format: ADME, cell-based, Canis lupus familiaris, Hepatocyte
[42] = AUClast at steady state in female Beagle dog at 3 mg/kg/day, po after 4 weeks; format: ADME, organism-based, Canis lupus familiaris; conditions: in vivo
[43] = Tmax in C57BL/6J mouse brain at 50 mg/kg, po administered as single dose by LC-MS analysis; format: ADME, organism-based
[44] = Toxicity in po dosed female Wistar rat; format: organism-based; conditions: in vivo
[45] = Intrinsic clearance in human hepatocytes assessed per 10^6 cells; format: ADME, cell-based, Hepatocyte; conditions: read-out: CLH
[46] = Cmax in C57BL/6J mouse thigh muscle at 50 mg/kg, po administered as single dose after 30 mins by LC-MS analysis; format: ADME, organism-based; parameters: dose 50 mg/kg, route oral
[47] = Toxicity in po dosed male Wistar rat; format: organism-based; conditions: in vivo

T1 sequence (P42336 whole entry, canonical isoform): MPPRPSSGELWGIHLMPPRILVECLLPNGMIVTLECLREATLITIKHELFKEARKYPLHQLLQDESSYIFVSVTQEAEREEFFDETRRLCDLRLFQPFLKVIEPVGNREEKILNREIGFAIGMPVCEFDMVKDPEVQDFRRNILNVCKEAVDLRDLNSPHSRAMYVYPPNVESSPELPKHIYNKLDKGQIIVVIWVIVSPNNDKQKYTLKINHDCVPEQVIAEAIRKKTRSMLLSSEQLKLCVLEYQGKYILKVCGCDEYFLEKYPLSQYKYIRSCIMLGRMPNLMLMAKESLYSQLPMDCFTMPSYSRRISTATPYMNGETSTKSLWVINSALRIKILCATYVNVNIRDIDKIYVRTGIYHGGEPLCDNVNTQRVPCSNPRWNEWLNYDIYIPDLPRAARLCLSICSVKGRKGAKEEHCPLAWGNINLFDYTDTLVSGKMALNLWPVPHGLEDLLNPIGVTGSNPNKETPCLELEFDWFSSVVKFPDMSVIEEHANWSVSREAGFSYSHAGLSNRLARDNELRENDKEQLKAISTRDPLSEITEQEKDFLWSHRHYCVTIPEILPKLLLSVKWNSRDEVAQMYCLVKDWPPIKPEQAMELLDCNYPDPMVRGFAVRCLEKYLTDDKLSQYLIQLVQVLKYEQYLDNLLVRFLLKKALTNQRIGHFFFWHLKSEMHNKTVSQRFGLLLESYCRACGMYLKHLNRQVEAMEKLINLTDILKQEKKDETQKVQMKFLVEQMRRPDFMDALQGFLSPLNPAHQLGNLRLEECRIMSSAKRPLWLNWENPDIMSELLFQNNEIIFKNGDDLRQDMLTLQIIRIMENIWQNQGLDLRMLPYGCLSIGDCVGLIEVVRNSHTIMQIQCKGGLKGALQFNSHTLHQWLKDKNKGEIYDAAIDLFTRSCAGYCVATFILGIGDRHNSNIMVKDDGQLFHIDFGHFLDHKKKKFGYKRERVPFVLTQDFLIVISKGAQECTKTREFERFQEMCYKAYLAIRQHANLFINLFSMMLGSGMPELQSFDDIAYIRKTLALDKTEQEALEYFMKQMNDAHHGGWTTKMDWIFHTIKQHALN
Phosphatidylinositol 4,5-bisphosphate 3-kinase catalytic subunit gamma isoform, sequence (P48736 whole entry, the tested form may be a part, canonical isoform): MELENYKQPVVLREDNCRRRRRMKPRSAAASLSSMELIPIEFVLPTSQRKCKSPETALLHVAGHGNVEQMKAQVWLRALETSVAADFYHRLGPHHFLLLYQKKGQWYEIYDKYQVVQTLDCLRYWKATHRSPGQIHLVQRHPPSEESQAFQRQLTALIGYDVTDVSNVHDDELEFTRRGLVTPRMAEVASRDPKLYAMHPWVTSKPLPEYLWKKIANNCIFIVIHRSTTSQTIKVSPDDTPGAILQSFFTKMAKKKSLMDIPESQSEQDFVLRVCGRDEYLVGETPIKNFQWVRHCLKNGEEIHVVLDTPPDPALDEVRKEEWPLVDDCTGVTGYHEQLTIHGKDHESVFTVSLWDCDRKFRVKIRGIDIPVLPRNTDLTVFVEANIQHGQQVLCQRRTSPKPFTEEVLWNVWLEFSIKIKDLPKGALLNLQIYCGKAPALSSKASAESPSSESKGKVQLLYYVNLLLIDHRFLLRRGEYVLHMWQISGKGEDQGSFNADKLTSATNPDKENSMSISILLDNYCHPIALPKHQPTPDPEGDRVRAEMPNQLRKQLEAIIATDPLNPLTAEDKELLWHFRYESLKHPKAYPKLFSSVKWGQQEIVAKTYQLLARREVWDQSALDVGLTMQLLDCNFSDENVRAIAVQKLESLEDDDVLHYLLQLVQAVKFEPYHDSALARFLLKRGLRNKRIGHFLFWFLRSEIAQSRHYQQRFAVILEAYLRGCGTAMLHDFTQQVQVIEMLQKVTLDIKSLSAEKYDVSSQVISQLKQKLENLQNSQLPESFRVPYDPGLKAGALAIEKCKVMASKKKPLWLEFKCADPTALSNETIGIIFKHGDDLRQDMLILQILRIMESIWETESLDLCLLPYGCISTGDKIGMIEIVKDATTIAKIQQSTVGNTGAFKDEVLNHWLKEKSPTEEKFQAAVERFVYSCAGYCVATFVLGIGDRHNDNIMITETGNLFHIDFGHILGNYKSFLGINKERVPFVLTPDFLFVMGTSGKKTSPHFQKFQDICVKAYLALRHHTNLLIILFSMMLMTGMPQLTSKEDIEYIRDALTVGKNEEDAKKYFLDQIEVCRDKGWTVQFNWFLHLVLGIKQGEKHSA

## Nc1cc(C(F)(F)F)c(-c2nc(N3CCOCC3)nc(N3C4CCC3COC4)n2)cn1
cells
  IC50: 156 nM
[1]
  Ki: 43.1 nM
[2]
  Ki: 19.9 nM
[3]
  IC50: 420 nM

## C[C@H]1COCCN1c1cc(-c2cnc(N)cc2C(F)F)nc(N2CCOCC2)n1
cells
  IC50: 766 nM
[1]
  Ki: 42.3 nM
[2]
  Ki: 13.7 nM
[3]
  IC50: 614 nM

## C[C@H]1COCCN1c1nc(-c2cnc(N)cc2C(F)F)nc(N2CCOCC2)n1
A2058 [4]
  Activity: Active
SK-OV-3
  Activity: Active
[5]
  CL/F: 20.9 mL/min/kg
[6]
  AUC(0-t) at 672 h: 127 ng·h/mL
[7]
  half-life: 3.5 h
Mus musculus [8]
  inhibition: Active
[9]
  half-life: 3.2 h
[10]
  remaining at 0.5 h: 81.5%
[11]
  remaining at 0.5 h: 106%
[12]
  half-life: 4.8 h
[13]
  Kd: 0.84 nM
[14]
  AUC(0-t) at 8 h: 46500 ng·h/mL
cells
  IC50: 61.9 nM
Mus musculus [15]
  inhibition: Active
[16]
  AUC at 8 h: 599 ng·h/mL
[17]
  NOAEL: 1 mg/kg/day
[1]
  Ki: 7.4 nM
[18]
  fraction unbound: 0.08
[19]
  hepatocyte CLint: 11 µL/min/1e6 cells
[2]
  Ki: 11.1 nM
A2058 [20]
  inhibition: Active
[21]
  half-life: 4.7 h
[22]
  half-life: 2.37 h
[23]
  Activity: Non-Toxic
Homo sapiens
  inhibition: Active
[24]
  Kd: 10 nM
[25]
  Tmax: 0.5 h
OVCAR-3
  Activity: Active
[26]
  AUC(0-t) at 8 h: 27900 ng·h/mL
[27]
  hepatocyte CLint: 10 µL/min/1e6 cells
A2058 [28]
  inhibition: Active
[29]
  NOAEL: 3 mg/kg/day
[30]
  Cmax: 7800 ng/mL
[31]
  half-life: 4.17 h
[32]
  Cmax: 12600 ng/mL
[33]
  remaining at 0.5 h: 73.2%
[34]
  AUC at 8 h: 335 ng·h/mL
[35]
  inhibition: Active
[3]
  IC50: 62.2 nM
[36]
  AUC(0-t) at 8 h: 39200 ng·h/mL
[37]
  hepatocyte CLint: 7 µL/min/1e6 cells
A2058 [38]
  inhibition: Active
[39]
  remaining at 0.5 h: 97.4%
[40]
  Tmax: 0.5 h
[41]
  half-life: 2.37 h
[42]
  AUC(0-t) at 672 h: 1070 ng·h/mL
[43]
  Tmax: 0.5 h
[44]
  NOAEL: 0.5 mg/kg
[45]
  hepatocyte CLint: 6 µL/min/1e6 cells
[46]
  Cmax: 11900 ng/mL
[47]
  NOAEL: 1 mg/kg/day

## C[C@H]1COCCN1c1nc(-c2cnc(N)cc2C(F)F)cc(N2CCOCC2)n1
cells
  IC50: 125 nM
[1]
  Ki: 10 nM
[3]
  IC50: 146 nM

## Nc1cc(C(F)(F)F)c(-c2nc(N3C4CCC3COC4)nc(N3C4CCC3COC4)n2)cn1
cells
  IC50: 299 nM
[1]
  Ki: 76.8 nM
[2]
  Ki: 4640 nM
[3]
  IC50: 755 nM

## C[C@H]1COCCN1c1nc(-c2cnc(N)nc2C(F)(F)F)nc(N2CCOCC2)n1
cells
  IC50: 164 nM
[1]
  Ki: 37.9 nM
[2]
  Ki: 4 nM
[3]
  IC50: 91 nM

Source: ChEMBL document CHEMBL4359834 (J Med Chem, 2019)
